# pIC50: −log10 of the molar value. Like-named read-outs stand apart in the source and are kept apart here.
# Legend:
# PDE10A = molecular target: T1, PDE10A (Homo sapiens, UniProt Q9Y233); assay: Activity of inhibiting PDE10A activity ([3H]cAMP decomposition inhibiting test); assay type: biochemical; conditions: for inhibition at 1 µM: read-out: [3H] cAMP decomposition inhibition rate (%); for pIC50: read-out: IC50 (concentration at which to inhibit [3H]cAMP decomposition by 50%)
# T1 construct: made in house; host or cells: Sf9 insect cells (baculovirus, pVL1393)
# T1 sequence (Q9Y233 340-1055): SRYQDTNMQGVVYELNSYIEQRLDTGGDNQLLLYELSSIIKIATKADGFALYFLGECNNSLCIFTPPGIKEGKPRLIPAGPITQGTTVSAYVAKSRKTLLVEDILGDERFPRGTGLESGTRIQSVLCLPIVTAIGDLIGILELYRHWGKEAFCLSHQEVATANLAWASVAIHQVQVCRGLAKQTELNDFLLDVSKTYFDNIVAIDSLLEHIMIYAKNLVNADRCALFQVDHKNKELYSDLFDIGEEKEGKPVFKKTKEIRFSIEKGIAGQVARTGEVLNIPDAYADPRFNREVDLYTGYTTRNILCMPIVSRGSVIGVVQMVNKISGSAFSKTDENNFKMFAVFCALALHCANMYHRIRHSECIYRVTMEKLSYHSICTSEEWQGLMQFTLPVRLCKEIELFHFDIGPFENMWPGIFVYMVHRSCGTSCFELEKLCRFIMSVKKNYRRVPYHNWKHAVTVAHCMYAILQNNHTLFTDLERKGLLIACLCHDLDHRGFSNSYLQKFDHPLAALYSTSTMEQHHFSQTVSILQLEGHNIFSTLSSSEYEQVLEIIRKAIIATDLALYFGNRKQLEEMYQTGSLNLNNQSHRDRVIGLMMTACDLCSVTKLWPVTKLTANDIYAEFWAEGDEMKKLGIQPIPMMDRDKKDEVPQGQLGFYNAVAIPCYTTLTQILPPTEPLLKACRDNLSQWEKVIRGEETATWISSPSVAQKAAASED
# Procedure: Activity of Inhibiting PDE10A Activity (^3H]cAMP Decomposition Inhibiting Test)
# PCR was performed using DNAs having base sequences described in SEQ ID NO. 1 and SEQ ID NO. 2 as primers and human kidney cDNA as a template to prepare a plasmid containing amplified fragments. The plasmid was cleaved with restriction endonucleases Pst I and Xba I to obtain a Pst I-Xba I fragment of 0.7 kb.
# Meanwhile, Est clone (Cosmo Bio, Tokyo) of GenBank, ACCESSION WO 4835 was cleaved with restriction endonucleases Kpn I and Pst I to obtain a Kpn I-Pst I fragment of 1.5 kb.
# The resulting Pst I-Xba I fragment of 0.7 kb and Kpn I-Pst I fragment of 1.5 kb were subcloned in a Kpn I-Xba I site of pBluescript II KS(−) (STRATAGENE, La Jolla, Calif., USA),to construct a plasmid having a cDNA fragment completely including a catalyst region of PDE10A. Subsequently, the plasmid was cleaved with restriction endonucleases Kpn I and Not I to obtain a Kpn I-Not I fragment of 2.2 kb.
# The resulting Kpn I-Not I fragment of 2.2 kb and a linker having a BamH I-Kpn I cleavage surface prepared by synthetic DNA having base sequences described in SEQ ID NOS. 3 and 4 were subcloned in a BamH I-Not I site of pVL1393 (PharMingen, San Diego, Calif., USA) to obtain a plasmid for preparation of Baculovirus. The plasmid contains a DNA encoding a peptide in which methionine, FLAG tag and a peptide having a 64th to 779th amino acid sequence of PDE10A [GenBank, ACCESSION NP 006652: Gene, vol. 234, p. 109 (1999), J. Biol. Chem., vol. 274, p. 18438 (1999)] are bound in the order.
# The above gene recombinational manipulation was performed according to the method described in Molecular Cloning, 2nd edition, Cold Spring Harbor Laboratory Press, New York (1989).
# The expression of PDE10A was conducted according to the Baculovirus expression vector system manual (PharMingen) using insect cells. As insect cells, Sf9 cells (Asahi Technoglass, Tokyo) were used. Sf9 cells were infected with a supernatant (co-transfection sup) containing PDE10A expression virus prepared according to the manual, and cultured at 27° C. for 4 days. The cells were recovered, washed with a phosphate-buffered saline (PBS), and then suspended in an extraction solution [20 mmol/L Tris-acetate (pH 7.5), 2 mmol/L MgCl2, 1 mmol/L dithiothreitol, 1 mmol/L ethylenediaminetetraacetic acid (EDTA), 0.25 mol/L sucrose, 250 unit/mL aprotinin, 40 μg/mL phenylmethylsulfonyl fluoride, and 1 μg/mL pepstatin A]. The cells were disrupted in ice with the maximum output under conditions of 5 seconds and five times using an ultrasonic disruption machine (TOMY model UR-200R, TOMY, Tokyo). A soluble fraction was obtained by centrifugation under 10,000 rpm of the fraction at 4° C. for 30 minutes, and the resulting soluble fraction was used for measuring the PDE activity.
# The PDE activity was measured according to the method described in Methods Enzymol., vol. 159, p. 457 (1988).
# Using [^3H]cAMP as a substrate, an enzyme reaction was conducted in a reaction solution containing 300 μL of 50 mmol/L N,N-bis (2-hydroxyethyl)-2-aminoethanesulfonic acid (pH 7.2), 1 mmol/L MgCl2 and 0.1 mmol/L ethylene glycol-bis (β-aminoethyl ether)-N,N,N′,N′-tetraacetic acid: EGTA). The concentration of the substrate was 0.2 μmol/L. To 95 μL of an enzyme dilute solution were added 5 μL of a test compound (DMSO solution) and 200 μL of a substrate solution. The mixture was incubated at 30° C. for 20 minutes, and then HCl was added to stop the reaction. The reaction product (5′-AMP) was converted to adenosine using 5′-nucleotidase, and separated the unreacted product from the reactant by DEAE-Sephadex A-25 column (Amersham Pharmacia Biotech, Uppsala, Sweden). The elute was moved to scintillation vials, 6 mL of Ultima Gold (Packard Instrument, Meriden, Conn., USA) was added, and the radioactivity was measured for 2 minutes using a liquid scintillation counter (Beckman LS6500, Beckman, Tokyo),. […]
# [1] = Test compound concentration 1 μmol/L, substrate [3H]cAMP 0.2 μmol/L
inhibition at 1 µM (PDE10A; [1]),pIC50 (PDE10A; substrate [3H]cAMP 0.2 μmol/L),melting point,SMILES,inhibition at 1 µM (PDE10A)
99%,7.89,222 to 224 °C,"Cc1c(-c2ccc(-c3ccccc3CNc3ccccc3)cc2)nc2ccc(F)cc2c1C(=O)O [Compound N, 6-Fluoro-3-methyl-2-[(2′-phenylamino)methylbiphenyl-4-yl]quinoline-4-carboxylic acid]",
99%,7.96,283 to 295 °C,"COc1ccccc1-c1ccc(-c2nc3ccc(F)cc3c(C(=O)O)c2C)cc1 [D, 6-Fluoro-2-(2′-methoxybiphenyl-4-yl)-3-methylquinoline-4-carboxylic acid]",
97%,7.33,260 °C (dec.),"Cc1ccccc1-c1ccc(-c2nc3ccc(F)cc3c(C(=O)O)c2C)cc1 [H, 6-Fluoro-3-methyl-2-(2′-methylbiphenyl-4-yl)quinoline-4-carboxylic acid]",
90%,,258 to 260 °C,"Cc1c(-c2ccc(-c3ccccc3CO)cc2)nc2ccc(F)cc2c1C(=O)O [K, 6-Fluoro-2-(2′-hydroxymethylbiphenyl-4-yl)-3-methylquinoline-4-carboxylic acid]",
99%,7.68,189 to 190 °C,"Cc1c(-c2ccc(-c3ccccc3CN3CCN(c4ccccc4)CC3)cc2)nc2ccc(F)cc2c1C(=O)O [L, 6-Fluoro-3-methyl-2-[21-(4-phenylpiperazin-1-yl)methylbiphenyl-4-yl]quinoline-4-carboxylic acid]",
98%,7.57,163 to 165 °C,"Cc1c(-c2ccc(-c3ccccc3CN3CCOCC3)cc2)nc2ccc(F)cc2c1C(=O)O [M, 6-Fluoro-3-methyl-2-(2′-morpholinomethylbiphenyl-4-yl)quinoline-4-carboxylic acid]",

SMILES,inhibition at 1 µM (PDE10A; [1]),pIC50 (PDE10A; substrate [3H]cAMP 0.2 μmol/L),melting point,inhibition at 1 µM (PDE10A)
"Cc1c(-c2ccc(-c3ccccc3-c3ccccc3)cc2)nc2ccc(F)cc2c1C(N)=O [O, 6-Fluoro-3-methyl-2-([1,1′:2′,1″-terphenyl]-4-yl)quinone-4-carboxamide]",,7.48,243 to 246 °C,94%

# Reference: patent publication US20060111368A1, “Phosphodiesterase inhibitor” (Kyowa Hakko Kogyo Co., Ltd., priority 2002, published 2006)
